In PMC8330757, “Design and characterisation of piperazine-benzofuran integrated dinitrobenzenesulfonamide as Mycobacterium tuberculosis H37Rv strain inhibitors” (Journal of Enzyme Inhibition and Medicinal Chemistry, 2021):
In brackets after ≈: the same amount, converted by molar mass. Where two headings read alike, the source gives them in different places.

Columns and labels:
Mtb H37Rv (ATCC27294) = test: In vitro anti-TB activity (MIC) against Mtb H37Rv; format: cell-based, Mycobacterium tuberculosis; details: for MIC: Mycobacterium tuberculosis, read-out: Anti-TB (MIC)
[1] = In vitro cytotoxicity, MTT assay; format: cell-based, human; details: human, A549 cells, read-out: Human cell lines A549 IC50 approximation
Method: (§1) The safety profile of the active hybrids was also accessed by testing in vitro cytotoxicity against human cell-line A549 cells at 50 μg/mL concentration by (4,5-dimethylthiazol-2-yl)-2,5-diphenyltetrazolium bromide (MTT) assay. […]
(§2) completion of starting material and formation of polar spot. The reaction mixture was concentrated to dry to give 7a-7d, used directly in next step.
(§3) 1.2. In-vitro Mtb MABA assay
(§4) Briefly, the inoculum was prepared from fresh LJ medium re -suspended in 7H9-S medium (7H9 broth, 0.1% casitone, 0.5% glycerol, supplemented oleic acid, albumin, dextrose, and catalase [OADC]), adjuste d to an OD590 1.0, and diluted 1:20; 100 µl was used as inoculum. Each drug stock solution was thawed and diluted in 7H9 -S at four-fold the final highest concentration tested. Serial two-fold dilutions of each drug were prepared directly in a sterile 96 -well microtiter plate using 100 µl 7H9 -S. A growth control containing no antibiotic and a sterile control were also prepared on each plate. Sterile water was added to all perimeter wells to avoid evaporation during the incubation. The plate was covered, seal ed in plastic bags and incubated at 37 °C in normal atmosphere. After 7 days incubation, 30 µl of Alamar blue solution was added to each well, and the plate was re -incubated overnight. A change in colour from blue (oxidised state) to pink (reduced) indicat ed the growth of bacteria, and the MIC was defined as the lowest concentration of drug that prevented this change in colour. […]
(§5) the concentration of […]. After 72 h of exposure, viability was assessed on the basis of cellular conversion of MTT into a formazan product using the Promega Cell Titer 96 non - radioactive cell proliferation assay.
(§6) 1.4. DPPH radical scavenging activity
(§7) The hydrogen atom or electron donation ability of some compounds were measured from the bleaching of the purple colored methanol solution of […] (DPPH). The spectrophotometric assay uses the stable radical DPPH as a reagent. 1 mL of various concentrations of the test compounds (5, 10, 25, 50 and 100 μg/mL) in methanol was added to 4 mL of 0.004% (w/v) methanol solution of DPPH. The reaction mixture was incubated at 37 °C.
(§8) The scavenging activity on DPPH was determined by measuring the absorbance at 517 nm after 30 min. All tests were performed in triplicate and the mean values were entered. The percent of inhibition (I %) of free radical production from DPPH was calculated by the following equation % of scavenging = [(A control – A sample)/ […]]. Where, A control is the […]

[2] = test system: human cell-line A549 cells; test: In vitro cytotoxicity, MTT assay; format: cell-based; details: 50 μg/mL, 72 h exposure
Method: as §1, §2, §3, §4, §5, §6, §7, §8

[3] = DPPH radical scavenging assay; details: absorbance at 517 nm after 30 min
Method: In TB, oxidative stress may result in tissue inflammation due to anti-TB drugs. The synthesised compounds have shown promising anti-TB activity and have the potential to develop as lead compounds. Therefore, it is necessary to evaluate the synthesised compounds for their antioxidant activity. Antioxidant activities of the synthesised compounds were measured using 2,2-diphenyl-1-picrylhydrazyl (DPPH) radical scavenging assay. DPPH radical scavenging activity is the most commonly used method for screening the antioxidant activities of the various natural as well as synthetic antioxidants. A lower IC50 value indicates greater antioxidant activity. […]
as §2, §3, §4, §5, §6, §7, §8

[4] = Mtb H37Rv, most active compounds tested in triplicates

Row | Structure (SMILES) | MIC (Mtb H37Rv (ATCC27294)) [µg/mL] | IC50 at 72 h [1] [µg/mL] | % Cell inhibition at 50 μg/mL [2] [%] | DPPH IC50 [3] [µg/mL] | Anti-TB (MIC) (Mtb H37Rv (ATCC27294); [4]) [µg/mL] | MIC (Mtb H37Rv (ATCC27294); [4]) [µg/mL]
1 | O=C(Nc1ccccc1)c1cc2cc(N3CCN(S(=O)(=O)c4ccc([N+](=O)[O-])cc4[N+](=O)[O-])CC3)ccc2o1 [Compound 4n, 5-(4-((2,4-dinitrophenyl)sulphonyl)piperazin-1-yl)-N-phenylbenzofuran-2-carboxamide] | 3.12 ± 1.1 (≈ 5.66 µM) | > 50 | 27.98 | 40.64 | – | –
2 | CCOC(=O)c1cc2cc(N3CCN(C(=O)[C@H]4CCCN4S(=O)(=O)c4ccc([N+](=O)[O-])cc4[N+](=O)[O-])CC3)ccc2o1 [Compound 4h, (R)-ethyl 5-(4-(1-((2,4-dinitrophenyl)sulphonyl)pyrrolidine-2-carbonyl)piperazin-1-yl)benzofuran-2-carboxylate] | > 25 | > 50 | 33.08 | 49.75 | – | –
3 | CCOC(=O)c1cc2cc(N3CCN(C(=O)C(NS(=O)(=O)c4ccc([N+](=O)[O-])cc4[N+](=O)[O-])c4ccccc4)CC3)ccc2o1 (stereo not drawn) [Compound 4k, ethyl 5-(4-(2-(2,4-dinitrophenylsulfonamido)-2-phenylacetyl)piperazin-1-yl) benzofuran-2-carboxylate] | > 25 | > 50 | 22.55 | 45.87 | – | –
4 | CCOC(=O)c1cc2cc(N3CCN(C(=O)CCCNS(=O)(=O)c4ccc([N+](=O)[O-])cc4[N+](=O)[O-])CC3)ccc2o1 [Compound 4d, ethyl 5-(4-(4-(2,4-dinitrophenylsulfonamido)butanoyl)piperazin-1-yl) benzofuran-2-carboxylate] | 1.56 ± 0.36 (≈ 2.65 µM) | > 50 | 35.95 | 33.50 | – | –
5 | CC[C@@H](CO)NCCN[C@@H](CC)CO [Ethambutol, reference compound] | – | – | – | – | 1.56 | 1.56 ± 0.76 (≈ 7.64 µM)
6 | CCOC(=O)c1cc2cc(N3CCN(C(=O)C4CCN(S(=O)(=O)c5ccc([N+](=O)[O-])cc5[N+](=O)[O-])C4)CC3)ccc2o1 (stereo not drawn) [Compound 4i, ethyl 5-(4-(1-((2,4-dinitrophenyl)sulphonyl)pyrrolidine-3-carbonyl)piperazin-1-yl)benzofuran-2-carboxylate] | 6.25 (≈ 10.4 µM) | > 50 | 19.38 | 52.44 | – | –
7 | CCOC(=O)c1cc2cc(N3CCN(C(=O)C(C)(C)NS(=O)(=O)c4ccc([N+](=O)[O-])cc4[N+](=O)[O-])CC3)ccc2o1 [Compound 4j, ethyl 5-(4-(2-(2,4-dinitrophenylsulfonamido)-2-methylpropanoyl)piperazin-1-yl)benzofuran-2-carboxylate] | 0.78 ± 0.48 (≈ 1.32 µM) | > 50 | 39.28 | 20.43 | 0.78 | –
8 | CCOC(=O)c1cc2cc(N3CCN(C(=O)[C@@H]4CCCN4S(=O)(=O)c4ccc([N+](=O)[O-])cc4[N+](=O)[O-])CC3)ccc2o1 [Compound 4g, (S)-ethyl 5-(4-(1-((2,4-dinitrophenyl)sulphonyl)pyrrolidine-2-carbonyl)piperazin-1-yl)benzofuran-2-carboxylate] | 6.25 (≈ 10.4 µM) | > 50 | 29.64 | 55.25 | – | –
9 | CN1CCN(C(=O)c2cc3cc(N4CCN(S(=O)(=O)c5ccc([N+](=O)[O-])cc5[N+](=O)[O-])CC4)ccc3o2)CC1 [Compound 4p, (5-(4-((2,4-dinitrophenyl)sulphonyl)piperazin-1-yl)benzofuran-2-yl)(4-methylpiperazin-1-yl) methanone] | 6.25 (≈ 11.2 µM) | > 50 | 30.18 | 48.66 | – | –
10 | NNC(=O)c1ccncc1 [Isoniazid, reference compound] | – | – | – | – | 0.05 | 0.05 ± 0.02 (≈ 0.365 µM)
11 | CCOC(=O)c1cc2cc(N3CCN(C(=O)C4CCCN(S(=O)(=O)c5ccc([N+](=O)[O-])cc5[N+](=O)[O-])C4)CC3)ccc2o1 (stereo not drawn) [Compound 4f, ethyl 5-(4-(1-((2,4-dinitrophenyl)sulphonyl)piperidine-3-carbonyl)piperazin-1-yl)benzofuran-2-carboxylate] | 1.56 ± 0.73 (≈ 2.53 µM) | > 50 | 22.75 | 39.01 | – | –
12 | CO[C@H]1/C=C/O[C@@]2(C)Oc3c(C)c(O)c4c(O)c(c(/C=N/N5CCN(C)CC5)c(O)c4c3C2=O)NC(=O)/C(C)=C\C=C\[C@H](C)[C@H](O)[C@@H](C)[C@@H](O)[C@@H](C)[C@H](OC(C)=O)[C@@H]1C [Rifampicin, reference compound] | – | – | – | – | 0.1 | 0.1 ± 0.04 (≈ 0.122 µM)
13 | CCOC(=O)c1cc2cc(N3CCN(C(=O)C4CCN(S(=O)(=O)c5ccc([N+](=O)[O-])cc5[N+](=O)[O-])CC4)CC3)ccc2o1 [Compound 4e, ethyl 5-(4-(1-((2,4-dinitrophenyl)sulphonyl)piperidine-4-carbonyl)piperazin-1-yl)benzofuran-2-carboxylate] | 1.56 ± 0.97 (≈ 2.53 µM) | > 50 | 18.95 | 45.21 | – | –
14 | CCOC(=O)c1cc2cc(N3CCN(C(=O)CNS(=O)(=O)c4ccc([N+](=O)[O-])cc4[N+](=O)[O-])CC3)ccc2o1 [Compound 4b, ethyl 5-(4-(2-(2,4-dinitrophenylsulfonamido)acetyl)piperazin-1-yl)benzofuran-2-carboxylate] | 3.12 ± 1.47 (≈ 5.56 µM) | > 50 | 37.41 | 50.33 | – | –
15 | O=C(c1cc2cc(N3CCN(S(=O)(=O)c4ccc([N+](=O)[O-])cc4[N+](=O)[O-])CC3)ccc2o1)N1CCCCC1 [Compound 4o, (5-(4-((2,4-dinitrophenyl)sulphonyl)piperazin-1-yl)benzofuran-2-yl) (piperidin-1-yl)methanone] | 1.56 ± 0.36 (≈ 2.87 µM) | > 50 | 31.58 | 19.27 | 1.56 | –
16 | CCOC(=O)c1cc2cc(N3CCN(S(=O)(=O)c4ccc([N+](=O)[O-])cc4[N+](=O)[O-])CC3)ccc2o1 [Compound 4a, ethyl 5-(4-(2,4-dintrobenzenesulfonyl)piperazin-1-yl)benzofuran-2-carboxylate] | 0.78 ± 0.36 (≈ 1.55 µM) | > 50 | 20.80 | 15.25 | 0.78 | –
17 | O=C1O[C@H]([C@@H](O)CO)C(O)=C1O [Ascorbic acid, reference compound] | – | – | – | 12.7 | – | –
18 | NC(=O)c1cc2cc(N3CCN(S(=O)(=O)c4ccc([N+](=O)[O-])cc4[N+](=O)[O-])CC3)ccc2o1 [Compound 4m, 5-(4-((2,4-dinitrophenyl)sulphonyl)piperazin-1-yl)benzofuran-2-carboxamide] | 25 (≈ 52.6 µM) | > 50 | 23.65 | 45.44 | – | –
